In brackets after ≈: the same amount, converted by molar mass.
Tests used:
[1] = Inhibition of Mycobacterium tuberculosis DprE1 using farnesyl-phosphoryl-beta-D-ribofuranose as substrate preincubated for 30 mins before substrate addition by peroxidase coupled assay
[2] = tested on: Mycobacterium tuberculosis; experiment: Antimycobacterial activity against Mycobacterium tuberculosis H37Rv ATCC 27294 after 5 days by microdilution method; assay type: functional; details: H37Rv ATCC 27294, 120 h
[3] = tested on: Mycobacterium tuberculosis; experiment: Antimycobacterial activity against Mycobacterium tuberculosis H37Rv ATCC 27294 infected in BMDM assessed as log reduction CFU after 7 days by killing kinetic assay; assay type: functional
[4] = tested on: Mycobacterium tuberculosis; experiment: Antimycobacterial activity against Mycobacterium tuberculosis H37Rv ATCC 27294 infected in human THP1 cells assessed as log reduction CFU after 7 days by killing kinetic assay; assay type: functional, THP-1
[5] = tested on: Mycobacterium tuberculosis; experiment: Antimycobacterial activity against Mycobacterium tuberculosis H37Rv ATCC 27294 after 2 to 3 weeks by turbidity assay; assay type: functional
[6] = tested on: Mycobacterium tuberculosis; experiment: Antimycobacterial activity against Mycobacterium tuberculosis H37Rv ATCC 27294 assessed as log reduction CFU after 7 days by killing kinetic assay; assay type: functional
Cytochrome P450 2C9 = Cytochrome P450 2C9 (Homo sapiens, UniProt P11712); experiment: Inhibition of human recombinant CYP2C9 by fluorescence assay; assay type: ADME
Cytochrome P450 2C9, sequence (P11712 whole entry): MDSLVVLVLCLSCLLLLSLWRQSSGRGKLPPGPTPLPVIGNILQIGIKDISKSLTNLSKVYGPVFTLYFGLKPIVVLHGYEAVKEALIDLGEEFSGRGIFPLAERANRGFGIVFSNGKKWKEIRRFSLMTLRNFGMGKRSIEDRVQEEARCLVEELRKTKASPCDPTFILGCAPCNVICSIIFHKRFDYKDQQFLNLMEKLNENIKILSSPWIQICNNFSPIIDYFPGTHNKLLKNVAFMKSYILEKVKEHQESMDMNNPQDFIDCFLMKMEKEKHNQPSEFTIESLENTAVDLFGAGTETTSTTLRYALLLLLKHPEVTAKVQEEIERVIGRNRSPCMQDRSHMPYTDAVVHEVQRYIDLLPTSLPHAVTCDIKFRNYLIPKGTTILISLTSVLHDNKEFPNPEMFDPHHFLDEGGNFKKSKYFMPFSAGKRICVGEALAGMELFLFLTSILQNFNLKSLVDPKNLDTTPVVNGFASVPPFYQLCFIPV

Cytochrome P450 1A2 = target: T1, Cytochrome P450 1A2 (Homo sapiens, UniProt P05177); experiment: Inhibition of human recombinant CYP1A2 by fluorescence assay; assay type: ADME
T1 sequence (P05177 whole entry): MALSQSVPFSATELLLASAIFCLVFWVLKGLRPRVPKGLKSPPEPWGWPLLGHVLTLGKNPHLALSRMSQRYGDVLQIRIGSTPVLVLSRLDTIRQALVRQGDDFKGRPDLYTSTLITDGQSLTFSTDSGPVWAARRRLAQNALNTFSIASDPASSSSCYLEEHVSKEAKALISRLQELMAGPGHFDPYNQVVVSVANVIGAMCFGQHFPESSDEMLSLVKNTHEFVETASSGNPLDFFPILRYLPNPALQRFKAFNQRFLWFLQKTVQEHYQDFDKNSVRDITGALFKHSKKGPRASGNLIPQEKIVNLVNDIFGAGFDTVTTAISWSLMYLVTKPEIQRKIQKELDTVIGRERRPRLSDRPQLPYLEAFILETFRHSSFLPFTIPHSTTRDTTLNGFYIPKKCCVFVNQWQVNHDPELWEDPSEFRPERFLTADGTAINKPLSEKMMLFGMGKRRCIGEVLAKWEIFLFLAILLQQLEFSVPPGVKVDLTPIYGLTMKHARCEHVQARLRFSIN

Cytochrome P450 2D6 = Cytochrome P450 2D6 (Homo sapiens, UniProt P10635); experiment: Inhibition of human recombinant CYP2D6 by fluorescence assay; assay type: ADME
Cytochrome P450 2D6, sequence (P10635 whole entry): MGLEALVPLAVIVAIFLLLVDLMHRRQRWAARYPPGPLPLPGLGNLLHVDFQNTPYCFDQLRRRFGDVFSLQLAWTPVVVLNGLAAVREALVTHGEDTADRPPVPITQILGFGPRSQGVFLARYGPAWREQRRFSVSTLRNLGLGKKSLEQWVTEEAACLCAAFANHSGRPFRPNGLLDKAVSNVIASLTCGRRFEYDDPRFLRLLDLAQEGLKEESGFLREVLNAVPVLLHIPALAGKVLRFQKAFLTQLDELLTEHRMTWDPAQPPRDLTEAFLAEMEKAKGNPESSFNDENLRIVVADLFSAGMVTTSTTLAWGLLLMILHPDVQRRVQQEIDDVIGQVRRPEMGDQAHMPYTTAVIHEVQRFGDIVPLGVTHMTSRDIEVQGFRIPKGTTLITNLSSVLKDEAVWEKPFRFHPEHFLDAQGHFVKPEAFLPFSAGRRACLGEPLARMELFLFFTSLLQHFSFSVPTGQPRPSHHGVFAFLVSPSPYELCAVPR

Cytochrome P450 2C19 = Cytochrome P450 2C19 (Homo sapiens, UniProt P33261); experiment: Inhibition of human recombinant CYP2C19 by fluorescence assay; assay type: ADME
Cytochrome P450 2C19, sequence (P33261 whole entry): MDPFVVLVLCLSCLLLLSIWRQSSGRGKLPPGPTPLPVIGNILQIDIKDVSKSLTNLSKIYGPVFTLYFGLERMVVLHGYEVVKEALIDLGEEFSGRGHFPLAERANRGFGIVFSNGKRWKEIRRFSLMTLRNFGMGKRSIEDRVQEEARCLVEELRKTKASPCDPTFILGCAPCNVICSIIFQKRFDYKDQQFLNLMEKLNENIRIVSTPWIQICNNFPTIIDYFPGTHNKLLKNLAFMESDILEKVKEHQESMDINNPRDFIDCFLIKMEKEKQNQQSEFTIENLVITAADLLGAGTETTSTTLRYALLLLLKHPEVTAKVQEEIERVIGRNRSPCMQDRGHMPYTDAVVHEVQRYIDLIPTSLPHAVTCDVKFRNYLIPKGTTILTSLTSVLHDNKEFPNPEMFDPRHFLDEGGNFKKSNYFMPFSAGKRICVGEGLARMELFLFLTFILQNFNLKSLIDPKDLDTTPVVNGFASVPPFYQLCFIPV

Cytochrome P450 3A4 = Cytochrome P450 3A4 (Homo sapiens, UniProt P08684); experiment: Inhibition of human recombinant CYP3A4 by fluorescence assay; assay type: ADME
Cytochrome P450 3A4, sequence (P08684 whole entry): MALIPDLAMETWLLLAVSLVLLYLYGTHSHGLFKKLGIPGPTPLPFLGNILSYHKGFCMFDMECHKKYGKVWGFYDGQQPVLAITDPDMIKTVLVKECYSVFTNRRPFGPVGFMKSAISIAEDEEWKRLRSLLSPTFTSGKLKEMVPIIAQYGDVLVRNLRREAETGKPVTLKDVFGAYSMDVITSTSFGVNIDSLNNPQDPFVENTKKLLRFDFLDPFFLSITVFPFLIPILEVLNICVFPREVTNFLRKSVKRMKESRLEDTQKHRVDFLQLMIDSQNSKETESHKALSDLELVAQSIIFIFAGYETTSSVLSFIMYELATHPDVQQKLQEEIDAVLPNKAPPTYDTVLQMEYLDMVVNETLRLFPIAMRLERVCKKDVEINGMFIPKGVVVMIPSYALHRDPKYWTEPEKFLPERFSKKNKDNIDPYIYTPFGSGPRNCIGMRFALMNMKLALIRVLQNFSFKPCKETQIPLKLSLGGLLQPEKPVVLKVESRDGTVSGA

A549 = experiment: Cytotoxicity against human A549 cells after 72 hrs by fluorescence assay; assay type: cell-based; details: A549, 72 h
[7] = Aqueous solubility of the compound; assay type: physicochemical; details: buffer
[8] = Fraction unbound in mouse plasma protein; assay type: ADME, cell-free
[9] = Intrinsic clearance in mouse liver microsomes; assay type: ADME; details: read-out: CLH
[10] = Clearance in iv dosed mouse; assay type: ADME, organism-based; details: in vivo
[11] = AUC100 in po dosed mouse; assay type: ADME, organism-based; details: in vivo
[12] = Volume of distribution at steady state in mouse; assay type: ADME, organism-based; details: in vivo, read-out: Vdss
Salmonella typhimurium [13] = experiment: Genotoxicity in Salmonella typhimurium TA98 at 5000 ug/plate by Ames test in absence of S9 fraction; assay type: toxicity, organism-based; details: salmonella enterica subsp. enterica serovar typhimurium
Salmonella typhimurium [14] = experiment: Genotoxicity in Salmonella typhimurium TA100 at 5000 ug/plate by Ames test in absence of S9 fraction; assay type: toxicity, organism-based; details: salmonella enterica subsp. enterica serovar typhimurium
Salmonella typhimurium [15] = experiment: Genotoxicity in Salmonella typhimurium TA98 at 5000 ug/plate by Ames test in presence of S9 fraction; assay type: toxicity, organism-based; details: salmonella enterica subsp. enterica serovar typhimurium
Salmonella typhimurium [16] = experiment: Genotoxicity in Salmonella typhimurium TA100 at 5000 ug/plate by Ames test in presence of S9 fraction; assay type: toxicity, organism-based; details: salmonella enterica subsp. enterica serovar typhimurium
Salmonella typhimurium [17] = experiment: Genotoxicity in Salmonella typhimurium TA100 at 50 ug/plate by Ames test in absence of S9 fraction; assay type: toxicity, organism-based; details: salmonella enterica subsp. enterica serovar typhimurium
Salmonella typhimurium [18] = experiment: Genotoxicity in Salmonella typhimurium TA98 at 50 ug/plate by Ames test in presence of S9 fraction; assay type: toxicity, organism-based; details: salmonella enterica subsp. enterica serovar typhimurium
Salmonella typhimurium [19] = experiment: Genotoxicity in Salmonella typhimurium TA100 at 16 ug/plate by Ames test in presence of S9 fraction; assay type: toxicity, organism-based; details: salmonella enterica subsp. enterica serovar typhimurium
Salmonella typhimurium [20] = experiment: Genotoxicity in Salmonella typhimurium TA98 at 160 ug/plate by Ames test in absence of S9 fraction; assay type: toxicity, organism-based; details: salmonella enterica subsp. enterica serovar typhimurium

SMILES: N#Cc1cc([N+](=O)[O-])c2sc(C(=O)N3CCCCC3)nc2c1
- IC50 [1]: 1.8 µM
- MIC [2]: 1 µg/mL (≈ 3.16 µM)

SMILES: C[C@H](NC(=O)c1sc2c([N+](=O)[O-])cc(C(F)(F)F)cc2[n+]1[O-])C(=O)C1CCCC1
- IC50 [1]: 0.06 µM
- MIC [2]: 0.02 µg/mL (≈ 0.0464 µM)
- Activity [3]: 1 log10CFU/ml
- Activity [4]: 1 log10CFU/ml

SMILES: O=[N+]([O-])c1cc(C(F)(F)F)cc2nc(CN3CCOCC3)sc12
- IC50 [1]: 5.2 µM
- MIC [2]: > 32 µg/mL

SMILES: O=C(NCc1ccccn1)c1sc2c([N+](=O)[O-])cc(C(F)(F)F)cc2[n+]1[O-]
- IC50 [1]: 0.026 µM
- MIC [2]: 0.02 µg/mL (≈ 0.0502 µM)
- MIC [5]: 0.01 µg/mL (≈ 0.0251 µM)
- Activity [6]: 2.5 log10CFU/ml

SMILES: Cc1c(C(F)(F)F)cc2nc(C(=O)NCc3ccccn3)sc2c1[N+](=O)[O-]
- IC50 [1]: 1.2 µM
- MIC [2]: 0.3 µg/mL (≈ 0.757 µM)

SMILES: COCCN1CCN(C(=O)c2nc3cc(C(F)(F)F)c(C)c([N+](=O)[O-])c3s2)CC1
- IC50 (Cytochrome P450 2C9): Not Active
- IC50 (Cytochrome P450 1A2): 9.56 µM
- IC50 [1]: 1.7 µM
- MIC [2]: 2 µg/mL (≈ 4.63 µM)
- IC50 (Cytochrome P450 2D6): 58.6 µM
- IC50 (Cytochrome P450 2C19): 64.9 µM
- IC50 (Cytochrome P450 3A4): 95 µM
- IC50 (A549): 100 µM
- solubility [7]: 73 µM (≈ 31.6 µg/mL)
- fraction unbound [8]: 0.043
- microsomal CLint [9]: < 4 µL/min/mg
- clearance [10]: 146 mL/min/kg
- AUC [11]: 570 ng·h/mL
- Vd [12]: 24.5 L/kg
- MIC [5]: 2 µg/mL (≈ 4.63 µM)
- Activity (Salmonella typhimurium [13]): Non-toxic
- Activity (Salmonella typhimurium [14]): Non-toxic
- Activity (Salmonella typhimurium [15]): Non-toxic
- Activity (Salmonella typhimurium [16]): Non-toxic

SMILES: O=C(c1nc2cc(C(F)(F)F)cc(B(O)O)c2s1)N1CCCCC1
- MIC [2]: > 32 µg/mL

SMILES: Cc1c(C(F)(F)F)cc2nc(C(=O)N3CCCCC3)sc2c1[N+](=O)[O-]
- IC50 [1]: 2.2 µM
- MIC [2]: 0.25 µg/mL (≈ 0.67 µM)
- MIC [5]: 0.5 µg/mL (≈ 1.34 µM)
- Activity (Salmonella typhimurium [13]): Non-toxic
- Activity (Salmonella typhimurium [14]): Non-toxic
- Activity (Salmonella typhimurium [15]): Non-toxic
- Activity (Salmonella typhimurium [16]): Non-toxic

SMILES: O=C(NCc1ccccn1)c1nc2cc(C(F)(F)F)cc([N+](=O)[O-])c2s1
- IC50 [1]: 0.452 µM
- MIC [2]: 0.6 µg/mL (≈ 1.57 µM)
- MIC [5]: 0.12 µg/mL (≈ 0.314 µM)
- Activity [6]: 2.5 log10CFU/ml
- Activity [3]: 1 log10CFU/ml
- Activity [4]: 1 log10CFU/ml

SMILES: O=C(c1nc2cc(C(F)(F)F)cc([N+](=O)[O-])c2s1)N1CCOCC1
- IC50 [1]: 0.3 µM
- MIC [2]: 0.1 µg/mL (≈ 0.277 µM)

SMILES: O=C(c1sc2c([N+](=O)[O-])cc(C(F)(F)F)cc2[n+]1[O-])N1CCCCC1
- IC50 (Cytochrome P450 2C9; read-out: IC50): 26.6 µM
- IC50 (Cytochrome P450 1A2): 14.7 µM
- IC50 [1]: 0.095 µM
- MIC [2]: 0.03 µg/mL (≈ 0.0799 µM)
- IC50 (Cytochrome P450 2D6): 1.21 µM
- IC50 (Cytochrome P450 2C19): 17.7 µM
- IC50 (Cytochrome P450 3A4): 3.91 µM
- IC50 (A549): 24 µM
- solubility [7]: 84.7 µM (≈ 31.8 µg/mL)
- fraction unbound [8]: 0.103
- microsomal CLint [9]: 102 µL/min/mg
- Activity (Salmonella typhimurium [17]): Toxic
- Activity (Salmonella typhimurium [18]): Toxic
- Activity (Salmonella typhimurium [19]): Toxic
- Activity (Salmonella typhimurium [20]): Toxic

SMILES: O=C(c1nc2cc(C(F)(F)F)cc(-[n+]3cc([O-])on3)c2s1)N1CCCCC1
- IC50 [1]: 28.2 µM
- MIC [2]: 32 µg/mL (≈ 80.3 µM)

SMILES: O=C(NCc1ccccn1)c1nc2cc(C(F)(F)F)ccc2s1
- IC50 [1]: > 100 µM
- MIC [2]: > 32 µg/mL

SMILES: CNC(=O)c1cc([N+](=O)[O-])c2sc(C(=O)N3CCCCC3)nc2c1
- IC50 [1]: 53 µM
- MIC [2]: 32 µg/mL (≈ 91.9 µM)

Reference: ChEMBL document CHEMBL3739380, “Discovery of benzothiazoles as antimycobacterial agents: Synthesis, structure-activity relationships and binding studies with Mycobacterium tuberculosis decaprenylphosphoryl-β-D-ribose 2'-oxidase” (Bioorg Med Chem, 2015)
